Test results: ChEMBL document CHEMBL1128276, “Quinazoline antifolate thymidylate synthase inhibitors: replacement of glutamic acid in the C2-methyl series” (J Med Chem, 1995)
pIC50: −log10 of the molar value.

Tests used:
[1] = target: T1, Thymidylate synthase (Mus musculus, UniProt P07607); assay: Inhibition of thymidylate synthase purified from mouse L1210 leukemia cells that overproduce thymidylate synthase (TS); assay type: cell-free
[2] = system: L1210; assay: Inhibition of L1210 cell growth; assay type: functional, cell-based; settings: Mus musculus
[3] = system: L1210 (1565); assay: Concentration to inhibit cell growth was measured on L1210:1565 cell line; assay type: functional, cell-based; settings: Mus musculus
[4] = system: L1210 (1565); assay: Relative resistance was measured in L1210:1565 cell line; assay type: functional, cell-based; settings: Mus musculus
[5] = system: L1210; assay: Ability to inhibit cell growth was measured on L1210 cells(horse serum); assay type: functional, cell-based; settings: Mus musculus
[6] = target: T1, Thymidylate synthase; assay: Ability to inhibit Thymidylate synthase purified from mouse L1210 leukemia cells that overproduce thymidylate synthase (TS)

T1 sequence (P07607 whole entry): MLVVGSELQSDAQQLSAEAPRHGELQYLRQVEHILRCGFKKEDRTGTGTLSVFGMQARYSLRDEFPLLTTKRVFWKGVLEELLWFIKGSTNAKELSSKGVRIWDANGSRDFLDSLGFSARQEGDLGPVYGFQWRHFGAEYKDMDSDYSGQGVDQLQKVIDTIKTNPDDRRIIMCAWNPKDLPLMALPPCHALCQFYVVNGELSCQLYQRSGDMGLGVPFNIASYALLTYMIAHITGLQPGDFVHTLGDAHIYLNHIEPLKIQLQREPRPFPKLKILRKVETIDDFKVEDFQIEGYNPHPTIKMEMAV

Compound | pIC50 [1] | pIC50 [2] | pIC50 [3] | pIC50 [5] | pIC50 [6] | Relative resistance [4]
C#CCN(Cc1cc2c(O)nc(C)nc2cc1C)c1ccc(C(=O)N[C@H](CCC(=O)O)C(=O)O)c(F)c1 | 8.05 | 7.10 | 5.23 | – | – | 74 dimensionless ratio
C#CCN(Cc1ccc2nc(C)nc(O)c2c1)c1ccc(C(=O)N[C@H](CCC(=O)O)C(=O)O)cc1 | – | 7.05 | 5.09 | – | – | –
C#CCN(Cc1ccc2nc(C)nc(O)c2c1)c1ccc(C(=O)NCc2nc(C)cs2)cc1 | – | 5.77 | 5.80 | – | 6.11 | 0.91 dimensionless ratio
C#CCN(Cc1cc2c(O)nc(C)nc2cc1C)c1ccc(C(=O)N[C@@H](C(=O)O)C(C)C)c(F)c1 | – | 5.77 | 5.54 | – | 8.22 | 1.71 dimensionless ratio
C#CCN(Cc1cc2c(O)nc(C)nc2cc1C)c1ccc(C(=O)NCc2nccs2)c(F)c1 | – | 6.18 | 6.30 | – | 7.00 | 0.76 dimensionless ratio
C#CCN(Cc1cc2c(O)nc(C)nc2cc1C)c1ccc(C(=O)NCc2cccc(C#N)c2)c(F)c1 | – | 6.64 | 7.05 | – | 7.32 | 0.38 dimensionless ratio
C#CCN(Cc1cc2c(O)nc(C)nc2cc1C)c1ccc(C(=O)N[C@@H](C(=O)O)c2cccc([N+](=O)[O-])c2)c(F)c1 | 8.36 | 5.61 | 5.90 | – | – | 0.51 dimensionless ratio
C#CCN(Cc1cc2c(O)nc(C)nc2cc1C)c1ccc(C(=O)NCc2ccccn2)c(F)c1 | – | 6.21 | 6.28 | – | 6.94 | 0.84 dimensionless ratio
C#CCN(Cc1ccc2nc(C)nc(O)c2c1)c1ccc(C(=O)N[C@@H](C(=O)O)c2cccc([N+](=O)[O-])c2)cc1 | 7.62 | 5.05 | 4.89 | – | – | 1.4 dimensionless ratio
C#CCN(Cc1ccc2nc(C)nc(O)c2c1)c1ccc(C(=O)N[C@H](CCC(N)=O)C(=O)O)cc1 | – | 5.66 | 4.40 | – | – | –
C#CCN(Cc1ccc2nc(C)nc(O)c2c1)c1ccc(C(=O)N[C@H](CCC)C(=O)O)cc1 | – | 5.60 | 4.47 | – | – | –
C#CCN(Cc1cc2c(O)nc(C)nc2cc1C)c1ccc(C(=O)NCc2cncs2)c(F)c1 | – | 6.21 | 6.62 | – | 6.96 | 0.39 dimensionless ratio
C#CCN(Cc1ccc2nc(C)nc(O)c2c1)c1ccc(C(=O)N[C@@H](C(=O)O)C(C)(C)C)cc1 | 7.24 | 5.70 | 4.85 | – | – | 7 dimensionless ratio
C#CCN(Cc1ccc2nc(C)nc(O)c2c1)c1ccc(C(=O)N[C@@H](C(=O)O)C(C)C)cc1 | 7.24 | 6.02 | 4.64 | – | – | 23 dimensionless ratio
C#CCN(Cc1cc2c(O)nc(C)nc2cc1C)c1ccc(C(=O)N[C@@H](C(=O)O)C(C)(C)C)c(F)c1 | – | 6.06 | 5.28 | – | 8.15 | 6 dimensionless ratio
C#CCN(Cc1cc2c(O)nc(C)nc2cc1C)c1ccc(C(=O)NCc2cccc([N+](=O)[O-])c2)c(F)c1 | 7.36 | 6.68 | 6.74 | – | – | 0.86 dimensionless ratio
C#CCN(Cc1ccc2nc(C)nc(O)c2c1)c1ccc(C(=O)N[C@H](Cc2ccc([N+](=O)[O-])cc2)C(=O)O)cc1 | 7.38 | < 4.70 | – | – | – | –

Second part, led by results:

pIC50 [1] | pIC50 [2] | pIC50 [3] | pIC50 [5] | pIC50 [6] | Compound | Relative resistance [4]
6.82 | 4.60 | – | – | – | C#CCN(Cc1ccc2nc(C)nc(O)c2c1)c1ccc(C(=O)N[C@H](C)C(=O)O)cc1 | –
6.35 | – | 5.30 | 5.41 | – | C#CCN(Cc1ccc2nc(C)nc(O)c2c1)c1ccc(C(=O)NCc2ccccn2)cc1 | 1.28 dimensionless ratio
– | 5.10 | 5.32 | – | 5.76 | C#CCN(Cc1ccc2nc(C)nc(O)c2c1)c1ccc(C(=O)NCc2cscn2)cc1 | 0.6 dimensionless ratio
6.77 | 4.39 | – | – | – | C#CCN(Cc1ccc2nc(C)nc(O)c2c1)c1ccc(C(=O)N[C@H](Cc2ccccc2)C(=O)O)cc1 | –
7.47 | 4.82 | 4.52 | – | – | C#CCN(Cc1ccc2nc(C)nc(O)c2c1)c1ccc(C(=O)N[C@@H](C(=O)O)c2ccccc2)cc1 | 2 dimensionless ratio
5.11 | – | – | 4.15 | – | C#CCN(Cc1ccc2nc(C)nc(O)c2c1)c1ccc(C(=O)NCc2ccc(Cl)cc2)cc1 | –
6.55 | – | 6.30 | 5.82 | – | C#CCN(Cc1ccc2nc(C)nc(O)c2c1)c1ccc(C(=O)NCc2cccc(C#N)c2)cc1 | 0.33 dimensionless ratio
5.85 | – | – | 5.22 | – | C#CCN(Cc1ccc2nc(C)nc(O)c2c1)c1ccc(C(=O)NCc2ccco2)cc1 | –
5.38 | 4.60 | – | – | – | C#CCN(Cc1ccc2nc(C)nc(O)c2c1)c1ccc(C(=O)NC)cc1 | –
6.49 | – | – | 5.66 | – | C#CCN(Cc1ccc2nc(C)nc(O)c2c1)c1ccc(C(=O)NCc2ccc([N+](=O)[O-])cc2)cc1 | –
– | 4.13 | – | – | 7.05 | C#CCN(Cc1ccc2nc(C)nc(O)c2c1)c1ccc(C(=O)N[C@@H](C(=O)O)c2ccc(F)cc2)cc1 | –
5.84 | 5.26 | – | – | – | C#CCN(Cc1ccc2nc(C)nc(O)c2c1)c1ccc(C(=O)NCc2ccsc2)cc1 | –
– | 4.05 | – | – | 6.80 | C#CCN(Cc1ccc2nc(C)nc(O)c2c1)c1ccc(C(=O)N[C@@H](C(=O)O)c2cccc(O)c2)cc1 | –
5.86 | 5.26 | – | – | – | C#CCN(Cc1ccc2nc(C)nc(O)c2c1)c1ccc(C(=O)NCc2ccoc2)cc1 | –
6.28 | < 4.00 | – | – | – | C#CCN(Cc1ccc2nc(C)nc(O)c2c1)c1ccc(C(=O)NCC(=O)O)cc1 | –
– | 5.22 | 5.30 | – | 6.12 | C#CCN(Cc1ccc2nc(C)nc(O)c2c1)c1ccc(C(=O)NCc2nccs2)cc1 | 0.83 dimensionless ratio
6.14 | 5.40 | – | – | – | C#CCN(Cc1ccc2nc(C)nc(O)c2c1)c1ccc(C(=O)NCc2ccccc2)cc1 | –
6.96 | – | 6.40 | 5.92 | – | C#CCN(Cc1ccc2nc(C)nc(O)c2c1)c1ccc(C(=O)NCc2cccc([N+](=O)[O-])c2)cc1 | 0.37 dimensionless ratio
6.49 | – | 5.12 | 5.74 | – | C#CCN(Cc1ccc2nc(C)nc(O)c2c1)c1ccc(C(=O)NCc2ccccc2[N+](=O)[O-])cc1 | 4.2 dimensionless ratio
5.65 | 5.07 | – | – | – | C#CCN(Cc1ccc2nc(C)nc(O)c2c1)c1ccc(C(=O)NCCC)cc1 | –
4.64 | 5.14 | – | – | – | C#CCN(Cc1ccc2nc(C)nc(O)c2c1)c1ccc(C(=O)NCC)cc1 | –
6.07 | 5.96 | 6.40 | – | – | C#CCN(Cc1ccc2nc(C)nc(O)c2c1)c1ccc(C(=O)NCc2cncs2)cc1 | 0.36 dimensionless ratio
5.74 | 4.96 | – | – | – | C#CCN(Cc1ccc2nc(C)nc(O)c2c1)c1ccc(C(=O)Nc2ccccc2)cc1 | –
6.57 | – | – | 4.07 | – | C#CCN(Cc1ccc2nc(C)nc(O)c2c1)c1ccc(C(=O)NCc2cccc(C(=O)O)c2)cc1 | –
